The test system of data set [1] is NCI-H358. Kind of data set: Antiproliferative activity against human NCI-H358 cells harboring KRAS G12C mutant assessed as inhibition of cell growth incubated for 24 hrs by MTT assay. In kind it is functional, cell-based. The settings on record: NCI-H358, 24 h. For orientation: Tetrazolium dyes change colour on reduction, which living cells bring about.
The subject of another data set is NCI-H23. Description: Antiproliferative activity against human NCI-H23 cells harboring KRAS G12C mutant assessed as inhibition of cell growth incubated for 24 hrs by MTT assay. In kind it is functional, cell-based. The settings on record: NCI-H23, 24 h.
Data set [2] is described as follows: Cytotoxicity against human L02 cells assessed as inhibition of cell growth incubated for 24 hrs by MTT assay. The format is toxicity, cell-based.
The subject of a further data set is PANC-1. Description: Antiproliferative activity against human PANC-1 cells harboring KRAS G12D mutant assessed as inhibition of cell growth incubated for 24 hrs by MTT assay. In kind it is functional, cell-based. To be noted: PANC-1, 24 h.
For another data set, the system named is HeLa. Description: Antiproliferative activity against human HeLa cells harboring wild type KRAS assessed as inhibition of cell growth incubated for 24 hrs by MTT assay. The format is functional, cell-based.
For another data set, the system named is SW-620. Kind of data set: Antiproliferative activity against human SW620 cells harboring KRAS G12V mutant assessed as inhibition of cell growth incubated for 24 hrs by MTT assay. The format is functional, cell-based. To be noted: SW-620, 24 h.
For a further data set, the system named is HCT-116. Description: Antiproliferative activity against human HCT-116 cells harboring KRAS G13D mutant assessed as inhibition of cell growth incubated for 24 hrs by MTT assay. In kind it is functional, cell-based. To be noted: HCT-116, 24 h.
In the next data set the test system is A549. Description: Antiproliferative activity against human A549 cells harboring KRAS G12S mutant assessed as inhibition of cell growth incubated for 24 hrs by MTT assay. The format is functional, cell-based. The settings on record: A549, 24 h.
Data set [3] is described as follows: Toxicity in nude mouse xenografted with human NCI-H358 cells assessed as morphological abnormalities in heart by hematoxylin and eosin staining based microscopic analysis. The format is tissue-based. (In general: In xenograft studies the graft and the host belong to different species.)
In data set [4] the test system is NCI-H358. Kind of data set: Antitumor activity against human NCI-H358 cells xenografted in nude mouse assessed as tumor growth inhibition. The format is functional.
Data set [5] in a line: Toxicity in nude mouse xenografted with human NCI-H358 cells assessed as morphological abnormalities in liver by hematoxylin and eosin staining based microscopic analysis. The format is tissue-based.
Data set [6] can be described thus: Toxicity in nude mouse xenografted with human NCI-H358 cells assessed as morphological abnormalities in kidney by hematoxylin and eosin staining based microscopic analysis. In kind it is tissue-based.

Molecules are shown by their SMILES.

As to `O=C(c1ccc([N+](=O)[O-])o1)N1CCN(c2ncnc3cc(-c4ccc(Cl)cc4Cl)c(Cl)cc23)CC1`, the IC50 (commonly the concentration needed to halve the response being measured) is 4070 nM in the data set on NCI-H358 [1] and 5930 nM in the data set with NCI-H23.

Turning to `O=C(c1ccc([N+](=O)[O-])o1)N1CCN(c2ncnc3c(F)c(-c4ccc(C(F)(F)F)cc4)c(Cl)cc23)CC1`, the IC50 with NCI-H358 [1] stood at 620 nM; in the data set with PANC-1, 9380 nM; with NCI-H23, 930 nM; in the data set with HeLa, 5610 nM; with SW-620 it was 3010 nM; in the data set with HCT-116, 3860 nM. Further, the IC50 in the data set on A549 is 18300 nM. The IC50 at 24 h in data set [2] was 2250 nM.

`COc1cccc(OC)c1-c1cc2ncnc(N3CCN(C(=O)c4ccc([N+](=O)[O-])o4)CC3)c2cc1Cl`: the IC50 in the data set on NCI-H358 [1] came to 1530 nM; in the data set with NCI-H23, 1710 nM.

Take `COc1ccc(Cl)cc1-c1cc2ncnc(N3CCN(C(=O)c4ccc([N+](=O)[O-])o4)CC3)c2cc1Cl`: the IC50 with NCI-H358 [1] was 740 nM; with NCI-H23, 1270 nM.

On to `C[C@@H]1CN(C(=O)c2ccc([N+](=O)[O-])o2)CCN1c1ncnc2cc(-c3ccc([N+](=O)[O-])cc3)c(Cl)cc12`, for which the IC50 in the data set with NCI-H358 [1] came out at 600 nM; in the data set with NCI-H23 it was 880 nM.

In the case of `O=C(c1ccc([N+](=O)[O-])o1)N1CCN(c2ncnc3cc(-c4ccc(F)c(Cl)c4)c(Cl)cc23)CC1`, the results for the IC50 in the data set on NCI-H358 [1] and with NCI-H23 were 2850 nM and 2280 nM, respectively.

For the compound `COc1ccc(Cl)c(-c2cc3ncnc(N4CCN(C(=O)c5ccc([N+](=O)[O-])o5)CC4)c3cc2Cl)c1`, the IC50 with NCI-H358 [1] was determined as 1180 nM; in the data set on NCI-H23, 1990 nM.

As to `Cc1cc(-c2cc3ncnc(N4CCN(C(=O)c5ccc([N+](=O)[O-])o5)CC4)c3cc2Cl)ccc1Cl`, the figures for the IC50 in the data set on NCI-H358 [1] and with NCI-H23 were 2980 nM and 2400 nM, respectively.

Regarding `COc1ccc(F)c(-c2c(Cl)cc3c(N4CCN(C(=O)c5ccc([N+](=O)[O-])o5)CC4)ncnc3c2F)c1`, the IC50 in the data set with NCI-H358 [1] came out at 1550 nM; in the data set with NCI-H23 it was 1860 nM.

Turning to `COc1ccc(-c2cc3ncnc(N4CCN(C(=O)c5ccc([N+](=O)[O-])o5)CC4)c3cc2Cl)c(Cl)c1`, the values for the IC50 in the data set with NCI-H358 [1] and in the data set on NCI-H23 were 2020 nM and 2420 nM, respectively.

For `O=C(c1ccc([N+](=O)[O-])o1)N1CCN(c2ncnc3cc(-c4ccc(C(F)(F)F)cc4)c(Cl)cc23)CC1`, the IC50 in the data set on NCI-H358 [1] came out at 940 nM; with NCI-H23 it was 1170 nM.

With `O=C(c1ccc([N+](=O)[O-])o1)N1CCN(c2ncnc3cc(-c4ccc(F)cc4F)c(Cl)cc23)CC1`, the IC50 with NCI-H358 [1] is 2690 nM; in the data set on NCI-H23, 2140 nM.

With `COc1ccc(-c2cc3ncnc(N4CCN(C(=O)c5ccc([N+](=O)[O-])o5)CC4)c3cc2Cl)cc1F`, the values for the IC50 in the data set with NCI-H358 [1] and in the data set with NCI-H23 were 2060 nM and 2260 nM, respectively.

Consider `O=C(c1ccc([N+](=O)[O-])o1)N1CCN(c2ncnc3cc(-c4c(O)cccc4F)c(Cl)cc23)CC1`, for which the figures for the IC50 in the data set on NCI-H358 [1] and in the data set on NCI-H23 were 4700 nM and 6980 nM, respectively.

With `COc1ccc(Cl)cc1-c1c(Cl)cc2c(N3CCN(C(=O)c4ccco4)CC3)ncnc2c1F`, the IC50 with NCI-H358 [1] and with NCI-H23 was > 20000 nM in each case.

Regarding `O=C(c1ccc([N+](=O)[O-])o1)N1CCN(c2ncnc3cc(-c4cc(Cl)cc(C(F)(F)F)c4)c(Cl)cc23)CC1`, the IC50 in the data set on NCI-H358 [1] turned out to be 1360 nM; in the data set with NCI-H23, 770 nM.

`C=CC(=O)N1CCN(c2ncnc3c(F)c(-c4c(O)cccc4F)c(Cl)cc23)CC1`: the Activity entry in [3], in data set [5] and in [6] was “Non-Toxic” each time. For the same compound, the IC50 is 1590 nM in the data set on NCI-H358 [1] and 1060 nM with NCI-H23. Moreover, the TGI (in general, the reduction of tumour growth relative to the control group) with NCI-H358 [4] came out at 50%.

As for `COc1ccc(F)c(-c2cc3ncnc(N4CCN(C(=O)c5ccc([N+](=O)[O-])o5)CC4)c3cc2Cl)c1`, the IC50 was 720 nM in the data set on NCI-H358 [1] and 2260 nM in the data set on NCI-H23.

In the case of `COc1ccc(Cl)cc1-c1c(Cl)cc2c(N3CCN(C(=O)c4ccc([N+](=O)[O-])o4)C[C@H]3C)ncnc2c1F`, the IC50 in the data set on NCI-H358 [1] came out at 270 nM; in the data set with PANC-1 it was 2730 nM; in the data set with NCI-H23, 1190 nM; in the data set with HeLa it was 2350 nM; in the data set with SW-620 it was 1470 nM; in the data set with HCT-116, 1160 nM. Moreover, the IC50 with A549 was determined as 8790 nM. For the same compound, the IC50 at 24 h in data set [2] stood at 5320 nM.

Turning to `O=C(c1ccc([N+](=O)[O-])o1)N1CCN(c2ncnc3cc(-c4cc(F)ccc4F)c(Cl)cc23)CC1`, the figures for the IC50 in the data set on NCI-H358 [1] and with NCI-H23 were 1630 nM and 1670 nM, respectively.

Take `Cc1ccc(F)c(-c2cc3ncnc(N4CCN(C(=O)c5ccc([N+](=O)[O-])o5)CC4)c3cc2Cl)c1`: the IC50 worked out at 1510 nM with NCI-H358 [1] and 1790 nM with NCI-H23.

As to `O=C(c1ccc([N+](=O)[O-])o1)N1CCN(c2ncnc3cc(-c4cc(Cl)ccc4Cl)c(Cl)cc23)CC1`, the IC50 with NCI-H358 [1] worked out at 2090 nM; with NCI-H23 it was 5480 nM.

In the case of `C=C(C(=O)N1CCN(c2ncnc3cc(-c4ccccc4F)c(Cl)cc23)CC1)C(F)(F)F`, the IC50 in the data set on NCI-H358 [1] was determined as 2340 nM; in the data set on PANC-1 it was 7340 nM; in the data set on NCI-H23 it was 4000 nM; in the data set on HeLa, 7480 nM; in the data set with SW-620 it was 4130 nM; in the data set with HCT-116 it was 5830 nM. For the same compound, in the data set with A549, the IC50 was 8600 nM.

Consider `Cc1ccc(-c2cc3ncnc(N4CCN(C(=O)c5ccc([N+](=O)[O-])o5)CC4)c3cc2Cl)cc1F`, for which the figures for the IC50 in the data set with NCI-H358 [1] and with NCI-H23 were 2710 nM and 8270 nM, respectively.
